Source: article PMC9618446 (Biomedicine & Pharmacotherapy, 2022)

Tests used:
Assay type in all cases: cell-based
[1] = tested on: SARS-CoV-2 S protein variant N501Y PsV; conditions: read-out: IC50 against SARS-CoV-2 S variant PsV N501Y
[2] = tested on: SARS-CoV-2 S protein variant P681H PsV; conditions: read-out: IC50 against SARS-CoV-2 S variant PsV P681H
[3] = tested on: SARS-CoV-2 S protein variant D614G PsV; conditions: read-out: IC50 against SARS-CoV-2 S variant PsV D614G

COc1c(O)cc2oc(-c3ccccc3)cc(=O)c2c1O [OA, Oroxylin A]
IC50 [1]: 13.6 ± 1.24 µM
IC50 [2]: 19.6 ± 2.39 µM
IC50 [3]: 18.1 ± 0.67 µM
